Results published in patent publication US10093627B2, “Tetrahydroquinoline derivatives and their use as Epac inhibitors” (Institut National de la Sante et de la Recherche Medicale …, priority 2012, dated 2018).

System: Iso-induced ANF-Luc transcriptional activation
Experiment: ANF-Luc transcriptional activation (Firefly luciferase assay) in rat neonatal cardiomyocytes
Format: cell-based
Settings: Iso 10 μM, 8 h; FIG. 4A
Description: ANF and NFAT promoters were fused to the Firefly luciferase gene (ANF-Luc) (NFAT-Luc) to detect ANF and NFAT by Firefly Luciferase assay (see Materiel and Methods).
Rat neonatal cardiomyocytes were cotransfected with ANF-Luc and Epac1 or empty vector pcDNA3 as control. One day after transfection, cells were pretreated or not with CE3F4 (20 μM) for 30 min and stimulated or not with Iso (10 μM) for 8 h. Cells were then assayed for Luciferase activity. B) Iso-induced NFAT-Luc Transcriptional Activation is Blocked by CE3F4: Neonatal cardiomyocytes were transfected with NFAT-Luc. One day later cells were pretreated or not with CE3F4 (20 μM) for 30 min and stimulated or not with Iso (10 μM) for 8 h. The day after, cells were assayed for Luciferase activity.
Results were normalized to control for each experiment, and were expressed as means±S.E.M of at 4 (FIG. 4A) or 5 (FIG. 4B) independent experiments performed in triplicates.
The rat ANF promoter fused to the Firefly luciferase reporter gene (ANF-Luc) by Dr K. Knowlton, Epac and Rap1 plasmid construct (Epac1^WT) by Drs J. L. Bos and J. de Gunzburg, respectively. The Firefly luciferase reporter plasmid driven by four NFAT consensus binding sites (NFAT-Luc) was purchased from Stratagene. […]
Cells were lysed, and luminescence was detected using the Luciferase Assay System (Promega) according to the manufacturer's instructions with Tecan Infinite.

Effect of agonist on ANF (ANF-Luc): increased ANF
SMILES: CC(C)NCC(O)c1ccc(O)c(O)c1 (stereo not shown) [Iso, Isoprenaline, reference compound]
